Consider 2 compounds from patent US10137084B2, “Use of bethanechol for treatment of xerostomia” (priority 2009, dated 2018).

Bounds are passed on as bounds.

In one data set the test system is male Sprague-Dawley rats. The data set can be described thus: efficacy study: saliva production after topical instillation into the oral cavity of anaesthetised rats. Format: in vivo, rat. The conditions noted are these: saturated solution. The protocol: In the experiments outlined below, bethanechol chloride for buccal administration was prepared as a saturated solution in a solvent mixture comprising PEG 400, glycerol, ethanol and sodium phosphate buffer. Specific solvent amounts were 30% PEG 400, 30% glycerol, 20% ethanol with 20% phosphate buffer (formed by mixing 50 ml of 0.1M sodium phosphate monobasic (monohydrate) with sufficient 0.1M sodium phosphate dibasic (heptahydrate) until a pH of 5.5 was achieved). Bethanechol chloride was present at up to 33%.
In order to prepare a saturated solution of bethanechol chloride the following method was used. A magnetic flea was placed into a 20 ml scintillation vial and the weight of both was recorded. Exactly 0.8 g of the pH 5.5 buffer solution was placed into the container. […] Once the saturated solution (containing un-dissolved bethanechol) had been achieved, the vial was placed onto a balance and the total weight recorded. […] The amounts of ethanol, glycerol and PEG 400 were calculated to make a solution containing 30% PEG 400, 30% glycerol, 20% ethanol and 20% buffer and bethanechol. […]
Saliva production data were analysed by repeated measures two-way ANOVA followed by Bonferronis post tests (GraphPad Prism version 5.0, GraphPad Software, San Diego, Calif., USA). […]

The test system of data set [1] is rats. The data set can be described thus: cardiovascular and respiratory parameters after application to the buccal cavity of anaesthetised rats. In kind it is in vivo, rat. The text has this:
(§1) In separate experiments, the effects of bethanechol (saturated solution, see above) were compared with those of physostigmine (1% solution in saline) on cardiovascular and respiratory parameters when applied to the buccal cavity of rats. Anaesthesia was induced in animals with urethane (1.75 g/kg given i.p.). Each animal was artificially ventilated via a tracheal cannula that was connected to a Fleisch (size 00) pneumotachograph and a pressure transducer (pressure range ±2 cm H2O). […] The left carotid artery was cannulated for recording blood pressure and heart rate, and the left jugular vein cannulated for drug administration. For topical administration, after 15-30 minutes a Parafilm ball was inserted into the back of the oral cavity to prevent the loss of solution into the oesophagus and airways. At T−10 minutes a cotton wool ball was inserted into the oral cavity and 10 minutes later it was removed and excess saliva wiped away. At T=O minutes physostigmine (1%, 10 microliters each on left and right sides) or bethanechol (10 microliters each on left and right sides) were instilled using a pipette. At T=10 minutes, another cotton wool ball was inserted into the oral cavity, 10 min later, it was removed and the excess saliva wiped away. The effects on baseline cardiovascular and respiratory parameters were recorded over 90 minutes. Physostigmine produced changes in all measured parameters, the mean maximum effects seen during the observation period were for pulmonary inflation pressure 44% increase, mean arterial pressure 17% decrease and heart rate 9.3% decrease (all n=2). In contrast, bethanechol produced minimal (and not significant) effects on any of these parameters, the mean maximum changes being 0% change, 3% decrease and 1% decrease for pulmonary inflation pressure, mean arterial pressure and heart rate respectively (n=3).

Data set [2] has as its system rats. The experiment in a line: cardiovascular and respiratory effects after intravenous administration in rats. In kind it is in vivo, rat. The conditions noted are these: n=3.
Excerpt: as §1
For an additional comparison, the effects of bethanechol (prepared in saline, dosing volume 0.1 ml) over a dose range of 0.3 micrograms/kg to 300 micrograms/kg administered intravenously were studied in rats. Doses were administered in ascending order to each animal (n=3) and cardiovascular and respiratory effects monitored over 5 minutes or until the recorded parameter had returned to baseline (whichever was the later). […] The effects observed with bethanechol at 300 micrograms/kg were mean arterial pressure 72% decrease, heart rate 69% decrease and pulmonary inflation pressure 30% increase.

In a further data set the test system is patients with xerostomia. The data set can be described thus: clinical study in patients with xerostomia, buccal solution versus placebo. In kind it is in vivo, human. Particulars: approximately 0.5 ml solution retained against the buccal mucosa for 1 to 2 minutes and then swallowed, crossover versus placebo. The method, then:
A cohort of approximately 20 patients with xerostomia is randomised to receive either placebo or bethanechol formulation or vice versa with at least 3 days washout between the treatment segments. Each treatment is given as a small volume (approximately 0.5 ml) solution to be retained against the buccal mucosa for 1 to 2 minutes and then swallowed. Clinical investigations include vital signs, haematology/chemistry and appearance of the buccal mucosa. Efficacy measurements include salivary flow and composition of major and minor glands using standard techniques (see e.g. Ferguson 1999, Archives of Oral Biol., 44:S11-S14; Boros et al., Archives of Oral Biol., 44:S59-S62) and the assessment of subjective oral dryness/comfort using validated measures (see e.g. Chainani-Wu et al., 2006, Spec. Care Dentist 26(4):164-170).

Where [3] appears, read: buccal, 10 microliters each on left and right sides, recorded over 90 minutes, physostigmine 1% (n=2), bethanechol saturated solution (n=3).

Take `CC(C[N+](C)(C)C)OC(N)=O` (stereo not shown) [bethanechol, Bethanechol chloride]: the salivary output result in the data set with male Sprague-Dawley rats (applied topically, for up to 70 minutes) was “sustained and significant increase”. Moreover, the “increase of total saliva production above vehicle effect” value with male Sprague-Dawley rats (10 microliters on each side of the mouth, 70 minute collection period, P less than 0.01, n=4) is listed as 72%. In the data set on rats [1] (rat, in vivo), the “heart rate, mean maximum effect (decrease)” value was 1%; the “mean arterial pressure, mean maximum effect (decrease)” value is 3%; the “pulmonary inflation pressure, mean maximum effect (increase)” value was determined as 0%. Moreover, in the data set on rats [2] (0.3 micrograms/kg, in saline), the heart rate decrease was found to be 6% and the “mean arterial pressure decrease” value is given as 31%. In addition, in the data set with rats [2] (300 micrograms/kg, in saline), the heart rate decrease is 69%, the “mean arterial pressure decrease” value is given as 72% and the “pulmonary inflation pressure increase” value is 30%. Also, the “dose at which increases in pulmonary inflation pressure were seen” value with rats [2] (ascending doses 0.3 to 300 micrograms/kg) is on record as not below 3 micrograms/kg. Besides, in the data set with patients with xerostomia, the salivary flows result is “increase salivary flows” and the “subjective oral dryness/comfort scores” value is on record as “improve subjective oral dryness/comfort scores”.

For `CNC(=O)Oc1ccc2c(c1)[C@]1(C)CCN(C)[C@@H]1N2C` [physostigmine], in the data set on rats [1] (setting [3]), the “heart rate, mean maximum effect (decrease)” value is given as 9.3%; the “mean arterial pressure, mean maximum effect (decrease)” value is given as 17%; the “pulmonary inflation pressure, mean maximum effect (increase)” value is on record as 44%.
